Reference: the supplement of paper PMC10307832

Assays:
Experiment in all cases: relative viability (nuclei count vs DMSO), 5 days (fraction); higher = more cells survive
CUDC-101 + Linsitinib = compound: C#Cc1cccc(Nc2ncnc3cc(OC)c(OCCCCCCC(=O)NO)cc23)c1 [CUDC-101] + C[C@]1(O)C[C@@H](c2nc(-c3ccc4ccc(-c5ccccc5)nc4c3)c3c(N)nccn32)C1 [Linsitinib] (partner 1 µM)
In short: (§1)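 Each reported value is a median over duplicate plates. It expresses relative viability: treated-well nuclei count divided by vehicle-well nuclei count. Lung cancer cell lines in 1536-well plates were dosed by pin tool a day after seeding, alone with one drug or with a fixed anchor-drug dose plus five library-drug doses (not always all listed) in √10 steps, and nuclei were counted after 5 days.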

CUDC-101 + Navitoclax = compound: C#Cc1cccc(Nc2ncnc3cc(OC)c(OCCCCCCC(=O)NO)cc23)c1 [CUDC-101] + CC1(C)CCC(c2ccc(Cl)cc2)=C(CN2CCN(c3ccc(C(=O)NS(=O)(=O)c4ccc(N[C@H](CCN5CCOCC5)CSc5ccccc5)c(S(=O)(=O)C(F)(F)F)c4)cc3)CC2)C1 [Navitoclax] (partner 0.5 µM)
In short: as §1

CUDC-101 + Phenformin = compound: C#Cc1cccc(Nc2ncnc3cc(OC)c(OCCCCCCC(=O)NO)cc23)c1 [CUDC-101] + N=C(N)NC(=N)NCCc1ccccc1 [Phenformin] (partner 250 µM)
In short: as §1

[1] = compound: C1=CC=C2C(=C1)N=C(S2)C(C#N)C3=NC(=NC=C3)NCCC4=CN=CC=C4 + Cc1cc(Nc2cc(N3CCN(C)CC3)nc(Sc3ccc(NC(=O)C4CC4)cc3)n2)n[nH]1 [Tozasertib] (partner 0.1 µM)
In short: as §1

Cell Line	relative viability (CUDC-101 + Linsitinib; first compound 0.01 µM)	relative viability (CUDC-101 + Linsitinib; first compound 0.03162 µM)	relative viability (CUDC-101 + Linsitinib; first compound 0.1 µM)	relative viability (CUDC-101 + Linsitinib; first compound 0.3162 µM)	relative viability (CUDC-101 + Linsitinib; first compound 1 µM)	relative viability (CUDC-101 + Navitoclax; first compound 0.01 µM)	relative viability (CUDC-101 + Navitoclax; first compound 0.03162 µM)	relative viability (CUDC-101 + Navitoclax; first compound 0.1 µM)	relative viability (CUDC-101 + Navitoclax; first compound 0.3162 µM)	relative viability (CUDC-101 + Navitoclax; first compound 1 µM)	relative viability (CUDC-101 + Phenformin; first compound 0.01 µM)	relative viability (CUDC-101 + Phenformin; first compound 0.03162 µM)	relative viability (CUDC-101 + Phenformin; first compound 0.1 µM)	relative viability (CUDC-101 + Phenformin; first compound 0.3162 µM)	relative viability (CUDC-101 + Phenformin; first compound 1 µM)	relative viability ([1]; first compound 0.005 µM)	relative viability ([1]; first compound 0.01581 µM)	relative viability ([1]; first compound 0.05 µM)	relative viability ([1]; first compound 0.1581 µM)	relative viability ([1]; first compound 0.5 µM)
HARA	1.01	0.804	0.908	0.512	0.349	1.13	1.16	1.09	1.14	0.837	0.4	0.397	0.476	0.501	0.248	0.098	0.0872	0.114	0.0978	0.118
LXF-289	0.989	1.04	0.979	0.992	0.781	0.952	0.966	0.911	0.932	0.753	0.536	0.523	0.55	0.493	0.408	0.173	0.197	0.184	0.232	0.237
201T	1.05	0.93	0.978	1.05	0.781	1.18	1.17	1.16	1.2	1.21	0.438	0.442	0.424	0.411	0.358	0.788	0.964	0.941	0.929	0.837
NCI-H520	0.997	–	1.05	0.982	0.485	1.04	–	1.03	0.987	0.316	0.55	0.494	0.576	0.581	0.247	0.406	0.431	0.467	0.376	0.421
RERF-LC-KJ	0.965	1.01	0.839	0.849	0.694	1.17	1.07	1.21	1.17	0.666	0.419	0.441	0.418	0.387	0.387	0.535	0.549	0.507	0.472	0.413
NCI-H1975	1.1	0.881	1.01	0.888	0.905	1.32	1.09	1.19	1.27	1.13	0.415	0.401	0.416	0.425	0.378	0.458	0.741	0.635	0.878	0.203
PC-3 [JPC-3]	0.987	0.91	0.789	0.667	0.383	0.776	0.749	0.506	0.613	0.342	0.484	0.486	0.362	0.402	0.351	0.661	0.927	0.866	0.791	0.706
EPLC-272H	1.25	1.1	1.16	1.05	1.08	1.42	1.2	1.15	0.871	0.59	0.279	0.297	0.201	0.136	0.114	0.168	0.225	0.253	0.236	0.388
